Literature values in patent US4259319A, “Antibiotic auromomycin, and process for production thereof” (Kanegafuchi Chemical Industry Company, Limited, priority 1977, dated 1981).

Experiments:
[1] = tested on: Gram-positive bacteria; settings: comparison substance
[2] = comparison substance

Question: With neocarcinostatin as the substance, how does the Antibacterial activity [1] read?
Answer: inhibiting only Grampositive bacteria

Question: What about the isoelectric point [2] of the same substance?
Answer: 3.5 pH
